Measurements: ChEMBL document CHEMBL1145503, “Paradoxical effect of Echinocandins across Candida species in vitro: evidence for echinocandin-specific and candida species-related differences” (2007)
≈ marks a conversion by molar mass, not a printed value. Numbered stars: 1 amine (or outer) side, 2 acyl side, 3 side chain; on linkers, the order of the positions; unused ones are H or OH. Bridge positions count the residues as written; N and C are the ends. Square brackets hold non-standard residues; d marks the D form. Peptide text beside a SMILES is read from it. * marks the point of attachment. hTyr(3S-OH,4S-OH,3'-OSO3H) = N[C@H](C(=O)O)[C@H](O)[C@@H](O)c1ccc(O)c(OS(=O)(=O)O)c1; pTerphenylCO(4''-OnC5H11) = CCCCCOc1ccc(-c2ccc(-c3ccc(C(=O)*)cc3)cc2)cc1; Orn(4R-OH,5R-OH) = O=C([C@H](C[C@@H](O)[C@@H](O)N[*:3])N[*:1])[*:2]; hTyr(3S-OH,4S-OH) = N[C@H](C(=O)O)[C@H](O)[C@@H](O)c1ccc(O)cc1; Pro(3S-OH,4S-Me) = C[C@H]1CN[C@H](C(=O)O)[C@H]1O; X1 = CCCCCOc1ccc(-c2cc(-c3ccc(C(=O)*)cc3)no2)cc1; Gln(3R-OH) = NC(=O)C[C@@H](O)[C@H](N)C(=O)O; Hyp = O=C(O)[C@@H]1C[C@@H](O)CN1

Assays:
Assay type in all cases: functional
Pichia kudriavzevii [1] = assay: Antifungal activity against Candida krusei after 48 hrs
Pichia kudriavzevii [2] = assay: Paradoxical effect in Candida krusei assessed as increase in turbidity at 16 times MIC
Candida albicans [3] = assay: Paradoxical effect in Candida albicans assessed as increase in turbidity at 16 times MIC
Nakaseomyces glabratus [4] = assay: Paradoxical effect in Candida glabrata assessed as increase in turbidity at 16 times MIC
Candida albicans [5] = assay: Antifungal activity against Candida albicans after 48 hrs
Candida parapsilosis [6] = assay: Antifungal activity against Candida parapsilosis after 48 hrs; conditions: Lodderomyces parapsilosis
Candida tropicalis [7] = assay: Paradoxical effect in Candida tropicalis assessed as increase in turbidity at 16 times MIC
Nakaseomyces glabratus [8] = assay: Antifungal activity against Candida glabrata after 48 hrs
Candida parapsilosis [9] = assay: Paradoxical effect in Candida parapsilosis assessed as increase in turbidity at 16 times MIC
Candida tropicalis [10] = assay: Antifungal activity against Candida tropicalis after 48 hrs
Pichia kudriavzevii [11] = assay: Paradoxical effect in Candida krusei assessed as increase in turbidity at 64 times MIC
Candida tropicalis [12] = assay: Paradoxical effect in Candida tropicalis assessed as increase in turbidity at 64 times MIC
Nakaseomyces glabratus [13] = assay: Paradoxical effect in Candida glabrata assessed as increase in turbidity at 64 times MIC
Candida albicans [14] = assay: Paradoxical effect in Candida albicans assessed as increase in turbidity at 64 times MIC
Candida parapsilosis [15] = assay: Paradoxical effect in Candida parapsilosis assessed as increase in turbidity at 64 times MIC
Candida albicans [16] = assay: Paradoxical effect in Candida albicans assessed as increase in turbidity at 96 times MIC
Pichia kudriavzevii [17] = assay: Paradoxical effect in Candida krusei assessed as increase in turbidity at 96 times MIC
Candida tropicalis [18] = assay: Paradoxical effect in Candida tropicalis assessed as increase in turbidity at 96 times MIC
Nakaseomyces glabratus [19] = assay: Paradoxical effect in Candida glabrata assessed as increase in turbidity at 96 times MIC
Candida parapsilosis [20] = assay: Paradoxical effect in Candida parapsilosis assessed as increase in turbidity at 96 times MIC

| SMILES | MIC50 (Pichia kudriavzevii [1]) | MIC90 (Pichia kudriavzevii [1]) | MIC50 (Candida albicans [5]) | MIC90 (Candida albicans [5]) | MIC50 (Candida parapsilosis [6]) | MIC90 (Candida parapsilosis [6]) | MIC50 (Nakaseomyces glabratus [8]) | MIC90 (Nakaseomyces glabratus [8]) | MIC50 (Candida tropicalis [10]) | MIC90 (Candida tropicalis [10]) | further results |
| --- | --- | --- | --- | --- | --- | --- | --- | --- | --- | --- | --- |
| CCCCCOc1ccc(-c2ccc(-c3ccc(C(=O)N[C@H]4C[C@@H](O)[C@@H](O)NC(=O)[C@@H]5[C@@H](O)[C@@H](C)CN5C(=O)[C@H]([C@@H](C)O)NC(=O)[C@H]([C@H](O)[C@@H](O)c5ccc(O)cc5)NC(=O)[C@@H]5C[C@@H](O)CN5C(=O)[C@H]([C@@H](C)O)NC4=O)cc3)cc2)cc1 [ANIDULAFUNGIN] ({pTerphenylCO(4''-OnC5H11)}-[Orn(4R-OH,5R-OH)]T[Hyp][hTyr(3S-OH,4S-OH)]T[Pro(3S-OH,4S-Me)]; lactam 1-C) | 0.25 µg/mL (≈ 0.219 µM) | 0.25 µg/mL (≈ 0.219 µM) | 0.5 µg/mL (≈ 0.438 µM) | 1 µg/mL (≈ 0.877 µM) | 0.5 µg/mL (≈ 0.438 µM) | 0.5 µg/mL (≈ 0.438 µM) | 0.5 µg/mL (≈ 0.438 µM) | 0.5 µg/mL (≈ 0.438 µM) | 0.5 µg/mL (≈ 0.438 µM) | 1 µg/mL (≈ 0.877 µM) | Activity (Pichia kudriavzevii [2]): 0%; Activity (Candida albicans [3]): 40%; Activity (Nakaseomyces glabratus [4]): 0%; Activity (Candida tropicalis [7]): 20%; Activity (Candida parapsilosis [9]): 0% |
| CC[C@H](C)C[C@H](C)CCCCCCCCC(=O)N[C@H]1C[C@@H](O)[C@@H](NCCN)NC(=O)[C@@H]2[C@@H](O)CCN2C(=O)[C@H]([C@H](O)CCN)NC(=O)[C@H]([C@H](O)[C@@H](O)c2ccc(O)cc2)NC(=O)[C@@H]2C[C@@H](O)CN2C(=O)[C@H]([C@@H](C)O)NC1=O [CASPOFUNGIN] | 0.06 µg/mL (≈ 0.0549 µM) | 1 µg/mL (≈ 0.915 µM) | 0.125 µg/mL (≈ 0.114 µM) | 0.25 µg/mL (≈ 0.229 µM) | 0.5 µg/mL (≈ 0.457 µM) | 1 µg/mL (≈ 0.915 µM) | 0.25 µg/mL (≈ 0.229 µM) | 0.5 µg/mL (≈ 0.457 µM) | 1 µg/mL (≈ 0.915 µM) | 1 µg/mL (≈ 0.915 µM) | Activity (Pichia kudriavzevii [11]): 10%; Activity (Candida tropicalis [12]): 40%; Activity (Nakaseomyces glabratus [13]): 0%; Activity (Candida albicans [14]): 60%; Activity (Candida parapsilosis [15]): 90% |
| CCCCCOc1ccc(-c2cc(-c3ccc(C(=O)N[C@H]4C[C@@H](O)[C@@H](O)NC(=O)[C@@H]5[C@@H](O)[C@@H](C)CN5C(=O)[C@H]([C@H](O)CC(N)=O)NC(=O)[C@H]([C@H](O)[C@@H](O)c5ccc(O)c(OS(=O)(=O)O)c5)NC(=O)[C@@H]5C[C@@H](O)CN5C(=O)[C@H]([C@@H](C)O)NC4=O)cc3)no2)cc1 [MICAFUNGIN] (X1-[Orn(4R-OH,5R-OH)]T[Hyp][hTyr(3S-OH,4S-OH,3'-OSO3H)][Gln(3R-OH)][Pro(3S-OH,4S-Me)]; lactam 1-C) | 0.5 µg/mL (≈ 0.394 µM) | 0.5 µg/mL (≈ 0.394 µM) | 0.25 µg/mL (≈ 0.197 µM) | 0.25 µg/mL (≈ 0.197 µM) | 1 µg/mL (≈ 0.787 µM) | 2 µg/mL (≈ 1.57 µM) | 0.06 µg/mL (≈ 0.0472 µM) | 0.125 µg/mL (≈ 0.0984 µM) | 0.06 µg/mL (≈ 0.0472 µM) | 0.06 µg/mL (≈ 0.0472 µM) | Activity (Candida albicans [16]): 0%; Activity (Pichia kudriavzevii [17]): 60%; Activity (Candida tropicalis [18]): 70%; Activity (Nakaseomyces glabratus [19]): 0%; Activity (Candida parapsilosis [20]): 0% |
